Strand notation (5' to 3'): a small letter for the sugar, then the base; units joined by * are phosphorothioate-linked, units joined directly phosphodiester-linked; [ ] holds rarer units or linkages, { } end groups; capitals alone tell only the bases. e = 2'-O-(2-methoxyethyl) (MOE); [5mC] = 5-methylcytosine; d = 2'-deoxy (DNA)

In the data set the test system is human PKK mRNA. Put plainly: Antisense inhibition of human PKK mRNA in HepaRG cells, 5,000 nM (Example 2). The class given is cell-based. In short, it runs like this: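 Chimeric MOE gapmers with full phosphorothioate backbones were tested once at 5,000 nM in electroporated HepaRG cells. After about 24 hours, quantitative PCR measured PKK mRNA relative to untreated control cells.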

[1] abbreviates: human PKK mRNA, HepaRG cells, 5-10-5 motif oligonucleotides targeting SEQ ID NO: 1 and 10.
The mark [2] stands for this setting: Table 13, human PKK mRNA in HepaRG cells, 5-10-5 gapmers.
Where [3] appears, read: HepaRG cells, electroporation, 5,000 nM antisense oligonucleotide, approx. 24 hours, primer probe set RTS3454, relative to untreated control cells, Table 11.
Setting [4] is: Table 7, HepaRG cells, electroporation with 5,000 nM antisense oligonucleotide, approx. 24 hours, PKK mRNA by RT-PCR (RTS3454), relative to untreated control cells.
Setting [5] is: HepaRG cells, electroporation, 5,000 nM antisense oligonucleotide, approx. 24 hours, primer probe set RTS3454, relative to untreated control cells, Table 12.
[6] abbreviates: HepaRG cells, 5,000 nM antisense oligonucleotide, 5-10-5 gapmers, Table 17.
[7] abbreviates: HepaRG cells, electroporation with 5,000 nM antisense oligonucleotide, approximately 24 hours, PKK mRNA by RT-PCR (RTS3454), relative to untreated control cells, Table 5 experiment.
Where [8] appears, read: HepaRG cells, 5,000 nM antisense oligonucleotide, 5-10-5 gapmers, Table 16.
Setting [9] is: HepaRG cells, electroporation with 5,000 nM antisense oligonucleotide, approximately 24 hours, PKK mRNA by RT-PCR (RTS3454), relative to untreated control cells, Table 6 experiment.
[10] abbreviates: Table 8, HepaRG cells, electroporation with 5,000 nM antisense oligonucleotide, approx. 24 hours, PKK mRNA by RT-PCR (RTS3454), relative to untreated control cells.
Setting [11] is: human PKK mRNA in HepaRG cells, 5-10-5 gapmers, Table 14.

Take “547648 (e[5mC]*e[5mC]*eT*eA*eT*dA*dA*d[5mC]*dA*dG*dT*dA*dT*d[5mC]*dA*e[5mC]*eT*eG*eT*eA; antisense) [compound 547648]”: the “% inhibition” value under setting [1] worked out at 83%.
On to “547558 (e[5mC]*e[5mC]*e[5mC]*e[5mC]*e[5mC]*dA*dG*dT*dT*d[5mC]*d[5mC]*d[5mC]*dA*dT*dG*e[5mC]*eA*eA*eG*eG; antisense) [compound 547558]”, for which, under setting [2], the “% inhibition” value is recorded as 52%.
Turning to “547528 (antisense e[5mC]*eA*e[5mC]*eA*eG*dT*d[5mC]*dA*dT*dG*dG*dA*dG*dA*dT*e[5mC]*eT*e[5mC]*eA*eG) [compound 547528]”, the “% inhibition” value under setting [3] was 78%.
For “546893 (e[5mC]*eA*e[5mC]*eT*eG*dT*d[5mC]*d[5mC]*dT*dA*dT*dG*dT*d[5mC]*dA*e[5mC]*eT*eG*eT*eA; antisense) [compound 546893]”, the “% inhibition” value under setting [1] is 70%.
Same read-out and setting: the same measure for “546890 (eT*eG*eT*e[5mC]*e[5mC]*dT*dA*dT*dG*dT*d[5mC]*dA*d[5mC]*dT*dG*eT*eA*e[5mC]*e[5mC]*eT; antisense) [compound 546890]”: 78%.
Consider “547394 (eT*eT*eT*eG*e[5mC]*dA*dG*dG*dT*dT*dA*dA*dA*dA*dG*eG*e[5mC]*eT*eA*eT; antisense) [compound 547394]”, for which the “% inhibition” value under setting [4] was found to be 29%.
With “547550 (antisense e[5mC]*e[5mC]*e[5mC]*e[5mC]*eA*dT*dG*d[5mC]*dA*dT*dA*d[5mC]*dT*d[5mC]*dG*e[5mC]*e[5mC]*eT*eT*eT) [compound 547550]”, under setting [5], the “% inhibition” value is 53%.
On to “547015 (eG*eG*eT*eG*eG*dT*dG*dG*dG*dA*dT*dT*dG*dG*dT*eG*e[5mC]*eT*eG*eA; antisense) [compound 547015]”, for which the “% inhibition” value under setting [6] turned out to be 55%.
For “547300 (antisense eG*eA*eA*e[5mC]*eT*dT*dG*d[5mC]*dT*dG*dG*dA*dA*dG*dA*eA*eA*eA*e[5mC]*eT) [compound 547300]”, the “% inhibition” value under setting [7] was determined as 37%.
On to “547760 (antisense eA*eT*e[5mC]*eA*eT*dG*d[5mC]*dT*dT*dA*d[5mC]*dT*dG*d[5mC]*dA*eA*eG*eT*eG*eA) [compound 547760]”, for which the “% inhibition” value under setting [6] is 19%.
For “547381 (eT*eG*eT*eG*eA*d[5mC]*dT*d[5mC]*dG*dA*dT*dT*dT*dT*d[5mC]*e[5mC]*eA*eT*eA*e[5mC]; antisense) [compound 547381]”, the “% inhibition” value under setting [4] came to 49%.
For “546773 (eT*e[5mC]*eT*e[5mC]*eT*dA*dG*d[5mC]*dA*dT*d[5mC]*d[5mC]*dT*dA*dG*eT*e[5mC]*e[5mC]*eT*e[5mC]; antisense) [compound 546773]”, the “% inhibition” value under setting [2] is listed as 67%.
With “547782 (antisense e[5mC]*e[5mC]*eA*eA*eG*dT*dA*dT*d[5mC]*dT*d[5mC]*dA*dT*dG*dT*eG*e[5mC]*e[5mC]*eT*eG) [compound 547782]”, the “% inhibition” value under setting [6] came out at 67%.
With “546492 (e[5mC]*eT*e[5mC]*eG*e[5mC]*d[5mC]*dT*dT*dT*dG*dT*dG*dA*d[5mC]*dT*e[5mC]*eG*eA*eT*eT; antisense) [compound 546492]”, under setting [5], the “% inhibition” value was determined as 61%.
On the same count and under the same terms, to “546419 (eT*eT*e[5mC]*eT*eA*dA*dT*dG*dT*dG*dG*d[5mC]*dA*d[5mC]*dT*eG*e[5mC]*eA*eG*eG; antisense) [compound 546419]” belongs 65%.
As to “547282 (antisense eT*eT*eG*e[5mC]*eT*dT*dG*d[5mC]*dT*dT*dG*dA*dA*dT*dA*eA*eA*eA*eT*e[5mC]) [compound 547282]”, the “% inhibition” value under setting [7] came to 53%.
In the case of “547693 (antisense eT*e[5mC]*eA*e[5mC]*eT*dG*dT*dA*d[5mC]*d[5mC]*dT*dA*dT*dA*dA*e[5mC]*eT*eG*eT*eA) [compound 547693]”, under setting [8], the “% inhibition” value is given as 61%.
Take “546954 (e[5mC]*eT*eG*e[5mC]*eT*dG*dA*dT*dT*dG*dT*dG*dT*d[5mC]*dT*eG*eG*e[5mC]*eT*e[5mC]; antisense) [compound 546954]”: under setting [8], the “% inhibition” value turned out to be 71%.
For “547354 (eA*eT*eT*eG*eT*dT*d[5mC]*d[5mC]*dG*dG*dT*dA*d[5mC]*dT*d[5mC]*eT*eG*e[5mC]*e[5mC]*eT; antisense) [compound 547354]”, the “% inhibition” value under setting [9] is on record as 89%.
For “547085 (e[5mC]*e[5mC]*eA*eG*eG*dT*dG*d[5mC]*dA*dG*d[5mC]*dA*d[5mC]*dG*dG*eA*eG*eA*eG*eG; antisense) [compound 547085]”, the “% inhibition” value under setting [6] turned out to be 44%.
Take “547662 (eA*e[5mC]*e[5mC]*eT*eA*dT*dA*dA*d[5mC]*dT*dA*dT*dA*dA*d[5mC]*eA*eG*eT*eA*eT; antisense) [compound 547662]”: the “% inhibition” value under setting [1] was 0%.
For the substance “547570 (eA*eA*eG*e[5mC]*e[5mC]*d[5mC]*dT*dG*dT*dT*dT*dG*dG*dT*dT*eT*eT*eT*eA*eG; antisense) [compound 547570]”, the “% inhibition” value under setting [2] stood at 18%.
“547651 (eT*eG*eT*eA*e[5mC]*d[5mC]*dT*dA*dT*dA*dA*d[5mC]*dA*dG*dT*eA*eT*e[5mC]*eA*e[5mC]; antisense) [compound 547651]”: the “% inhibition” value under setting [1] is given as 48%.
Regarding “547367 (eA*eT*e[5mC]*eT*eG*dG*dA*dG*dT*dG*dA*dG*dA*dA*d[5mC]*e[5mC]*e[5mC]*eT*eG*eG; antisense) [compound 547367]”, the “% inhibition” value under setting [4] was determined as 76%.
As to “547477 (antisense eT*e[5mC]*eT*eT*e[5mC]*dA*dT*dT*dT*dG*dT*dT*dA*d[5mC]*d[5mC]*eA*eA*eA*eG*eG) [compound 547477]”, the “% inhibition” value is given as 74% (Table 9 experiment, HepaRG cells, 20,000 cells per well, electroporation with 5,000 nM antisense oligonucleotide, approx. 24 hours, PKK mRNA by RT-PCR (RTS3454), relative to untreated control cells) and 68% (Table 10 experiment, HepaRG cells, 20,000 cells per well, electroporation with 5,000 nM antisense oligonucleotide, approx. 24 hours, PKK mRNA by RT-PCR (RTS3454), relative to untreated control cells).
As to “547447 (antisense eA*eT*eT*eT*eG*dT*dG*dA*dG*dA*dA*dA*dG*dG*dT*eG*eT*eA*eT*e[5mC]) [compound 547447]”, the “% inhibition” value under setting [10] is listed as 80%.
Take “547420 (e[5mC]*e[5mC]*eA*eT*eA*dG*dA*dT*dA*dA*dT*d[5mC]*dT*dT*dA*eA*eG*eA*eA*eA; antisense) [compound 547420]”: under setting [10], the “% inhibition” value amounted to 8%.
On the same count and under the same terms, the same measure for “546303 (antisense eT*eT*eT*eG*eT*dG*dA*dG*dA*dA*dA*dG*dG*dT*dG*eT*eA*eT*e[5mC]*eT) [compound 546303]”: 77%.
Consider “547666 (eA*eT*e[5mC]*eA*e[5mC]*dT*dG*dT*dA*d[5mC]*d[5mC]*dT*dA*dT*dA*eA*e[5mC]*eT*eA*eT; antisense) [compound 547666]”, for which the “% inhibition” value under setting [1] was determined as 71%.
“547390 (eA*eT*e[5mC]*e[5mC]*eA*dG*dA*dT*dA*dT*dG*dG*dT*dG*dT*eT*eT*eT*e[5mC]*eT; antisense) [compound 547390]”: the “% inhibition” value under setting [4] turned out to be 63%.
For the substance “546705 (e[5mC]*e[5mC]*e[5mC]*e[5mC]*eT*dG*dT*dA*dG*dT*dT*dG*dG*d[5mC]*dT*eG*eT*eG*eG*eT; antisense) [compound 546705]”, under setting [5], the “% inhibition” value is on record as 66%.
As to “546200 (antisense eA*eA*eA*eA*e[5mC]*dT*dG*dG*d[5mC]*dA*dG*d[5mC]*dG*dA*dA*eT*eG*eT*eT*eA) [compound 546200]”, the “% inhibition” value under setting [9] is 91%.
The same measure, in the same setting: the same measure for “547316 (antisense eG*eA*eA*eA*e[5mC]*dT*dG*d[5mC]*dA*d[5mC]*d[5mC]*dT*dG*dT*dT*e[5mC]*eG*eA*eT*eG) [compound 547316]”: 75%; for “546203 (antisense eA*eA*eT*eT*eG*dT*dT*d[5mC]*d[5mC]*dG*dG*dT*dA*d[5mC]*dT*e[5mC]*eT*eG*e[5mC]*e[5mC]) [compound 546203]”: 76%.
For the substance “546164 (eT*eG*eA*eT*eT*dG*dA*dA*d[5mC]*dT*dT*dG*d[5mC]*dT*dG*eG*eA*eA*eG*eA; antisense) [compound 546164]”, under setting [7], the “% inhibition” value is reported as 33%.
“546498 (e[5mC]*e[5mC]*eA*eT*eG*d[5mC]*dA*dT*dA*d[5mC]*dT*d[5mC]*dG*d[5mC]*d[5mC]*eT*eT*eT*eG*eT; antisense) [compound 546498]”: under setting [5], the “% inhibition” value was 65%.
As to “546385 (eA*eT*eT*eG*eT*d[5mC]*d[5mC]*dT*d[5mC]*dA*dG*d[5mC]*dA*dG*d[5mC]*eT*e[5mC]*eT*eG*eA; antisense) [compound 546385]”, under setting [3], the “% inhibition” value worked out at 67%.
As to “546869 (eT*eG*eT*eA*e[5mC]*d[5mC]*dT*dA*dT*dA*dA*d[5mC]*dT*d[5mC]*dT*eA*eA*e[5mC]*eA*eG; antisense) [compound 546869]”, the “% inhibition” value under setting [11] stood at 53%.
“547612 (antisense e[5mC]*e[5mC]*eT*eG*eT*dA*dA*d[5mC]*dA*dG*dT*dA*dT*d[5mC]*dA*e[5mC]*eT*eG*eT*eA) [compound 547612]”: the “% inhibition” value under setting [11] is 68%.
For “546915 (eT*e[5mC]*eA*e[5mC]*eT*dG*dT*d[5mC]*d[5mC]*dT*dA*dT*dA*dA*d[5mC]*eT*eA*eT*eA*eT; antisense) [compound 546915]”, the “% inhibition” value under setting [8] turned out to be 39%.

The term % inhibition denotes the percentage by which the read-out fell short of the control. High values mean a strong effect, low ones a weak effect.

The values are drawn from US11840686B2, “Modulation of prekallikrein (PKK) expression” (Ionis Pharmaceuticals, Inc., priority 2013, dated 2023).
